Values of other authors in US20050112093A1, “Combination therapy for HCV infection” (priority 2003, published 2005).

Columns and labels:
HCV [1] = test system: HCV
HCV [2] = test system: HCV; remark: listed apart in the source
[3] = majority of patients, over the course of treatment

Compound | patients achieving a sustained virological response (SVR) (HCV [1]; chronic HCV infection, following six months of therapy) [%] | SVR (HCV [1]; treatment naïve patients, IFN-α alone, 6 months, the latter (upper) value representing 48 weeks of treatment) | serum HCV RNA levels (HCV [2]; ribavirin treatment alone) | liver enzyme levels (HCV [2]; ribavirin used alone, during treatment, return to baseline when treatment is discontinued) | mean decrease in hemoglobin [3] [g/dL]
IFN-α | 20 | 6-17% |  |  | 
NC(=O)c1ncn([C@@H]2O[C@H](CO)[C@@H](O)[C@H]2O)n1 [ribavirin, 1-beta-D-ribofuranosyl-1H-1,2,4-triazole-3-carboxamide] |  |  | only minimally and transiently decreases serum HCV RNA levels | decreases liver enzyme levels in most patients during treatment | 2 to 3
